Results taken from patent US11261179B2, “Small molecules” (University of Dundee, priority 2017, dated 2022).

Experiments:
[1] = target: pVHL19 (VCB complex: VHL with Elongin B and Elongin C) (Homo sapiens, UniProt P40337); test: ITC titration against VCB, short VHL isoform; format: binding; conditions: for binding to VCB detected by ITC: ITC against VCB; for Kd / ΔG / ΔH / −TΔS / n (stoichiometry) / α (cooperativity/avidity): ITC; for Kd / ΔG / ΔH / −TΔS / α (cooperativity/avidity): pVHL19; for n (stoichiometry): pVHL19, 25° C.
Chain of pVHL19 (VCB complex: VHL with Elongin B and Elongin C) (P40337 54-213): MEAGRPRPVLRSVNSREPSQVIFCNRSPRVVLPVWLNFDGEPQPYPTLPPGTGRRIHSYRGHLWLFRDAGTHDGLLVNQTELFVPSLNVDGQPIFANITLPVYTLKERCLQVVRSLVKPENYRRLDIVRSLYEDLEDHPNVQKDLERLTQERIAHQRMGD
Chain of pVHL19 (VCB complex: VHL with Elongin B and Elongin C) (Q15370 1-104 partner limits assumed): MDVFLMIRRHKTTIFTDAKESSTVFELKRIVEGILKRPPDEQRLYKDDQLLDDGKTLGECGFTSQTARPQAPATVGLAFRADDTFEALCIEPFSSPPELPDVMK
Chain of pVHL19 (VCB complex: VHL with Elongin B and Elongin C) (Q15369 17-112 partner limits assumed): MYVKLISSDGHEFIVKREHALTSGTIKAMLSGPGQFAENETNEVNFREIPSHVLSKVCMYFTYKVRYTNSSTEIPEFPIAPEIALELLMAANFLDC
Method: (§1) Titrations were performed on an ITC200 micro-calorimeter (GE Healthcare). […] The final DMSO concentration was 0.15% v/v. VBC protein experiments were carried out in a buffer containing 20 mM Bis-tris propane, 150 mM NaCl, 1 mM TCEP, 0.15% v/v DMSO, pH 7.4. The titrations consisted of 19 injections of 2 μL compounds solution (150 μM, in the syringe) at a rate of 2 s/μL at 120 s time intervals into the VCB protein solution (20 μM, in the cell). An initial injection of compound solution (0.4 μL) was made and discarded during data analysis. All experiments were performed at 25° C., whilst stirring the syringe at 600 rpm. The data were fitted to a single binding site model to obtain the stoichiometry n, the dissociation constant Kd and the enthalpy of binding ΔH using the Microcal LLC ITC200 Origin software provided by the manufacturer.

[2] = target: T1, pVHL30 (long isoform of VHL) (Homo sapiens, UniProt P40337); test: Western blot of VHL levels in HeLa cells; format: cell-based; conditions: 1 μM, 10 h
T1 construct: endogenous in cells; host or cells: HeLa
T1 sequence (P40337 whole entry, canonical isoform): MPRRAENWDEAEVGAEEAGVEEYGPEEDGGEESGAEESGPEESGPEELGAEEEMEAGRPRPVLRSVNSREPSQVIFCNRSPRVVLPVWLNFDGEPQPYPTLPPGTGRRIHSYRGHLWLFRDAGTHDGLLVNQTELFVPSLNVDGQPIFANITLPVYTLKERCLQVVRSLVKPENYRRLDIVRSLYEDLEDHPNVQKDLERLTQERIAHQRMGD
Method: (§2) For single time point treatment experiments, cells were transferred in 6-well plates with 5×10^5 cells per well in 2 ml media in order to achieve 80% confluence the following day. Stock concentrations of compounds were prepared by solubilizing the powder in 100% v/v DMSO to the final desired stock concentration.
(§3) On the day of treatment, all compound samples were prepared as 100-fold concentrated compound solution using DMEM just before treatment. The experiment samples (20 μL) were added to the 6 well plate containing 2 ml of media. The final DMSO concentration was 0.1% v/v. Cells were incubated at 37° C. and 5% CO2 for the desired time before harvesting.
(§4) For time dependent treatment, cells were transferred in 6-well plates with 3×10^5 cells per well in 2 ml media. Samples were prepared as detailed above or the single time point experiments. Treatment was conducted at given time points prior to harvest.
Cells were transferred in 6-well plates with 5×10^5 cells per well in 2 ml media in order to achieve 80% confluence the day after. At t=0, MLN4924 was added into the desired wells at 3 μM final concentration and 0.1% v/v of DMSO. DMSO (0.1% v/v final conc.) was added to the remaining wells in order to match identical conc. of vehicle in all wells. At t=3 h, MG 132 was added into the desired wells at 50 μM final conc. and 0.1% v/v of DMSO. DMSO (0.1% v/v final conc.) was added to the remaining wells in order to achieve the same conc. of vehicle in all the wells. […] DMSO (0.1% v/v final conc.) was added to the remaining wells in order to obtain the same conc. of vehicle in all the wells. The total final concentration of DMSO was therefore 0.3% v/v. Plates were incubated for 4 h at 37° C. and 5% CO2 before harvesting.
Cells were transferred in 6-well plates with 5×10^5 cells per well in 2 ml media in order to achieve 80% confluence the day after. […] Plates were incubated for the desired time at 37° C. and 5% CO2 before harvesting.
For this experiments, cells were transferred in 6-well plates with 5×10^5 cells per well in 2 ml media in order to achieve 80% confluence the day after. […] Plates were incubated for the desired time at 37° C. and 5% CO2 before harvesting.
(§5) Cells were lysed in lysis buffer (20 mM Tris pH 8, 150 mM NaCl, 1% Triton x100) and a protease inhibitor cocktail (Roche) per 10 ml buffer. For protein extracts, the dishes were placed on ice. The media was aspirated and the tissue layer washed twice with ice-cold phosphate buffer saline (PBS). Lysis buffer (120 μl) was added and the cells detached from the surface with a cell scraper. After removal of the insoluble fraction by centrifugation, the protein concentration of the supernatant was determined by Pierce™ Coomassie (Bradford) Protein Assay Kit. Protein extracts were fractionated by SDS-PAGE on 4-12% Tris-Acetate NuPage® Novex® (Life Technologies) polyacrylamide gels and transferred to a nitrocellulose membrane using wet transfer. The membrane was then blocked with 5% w/v Bovine serum albumin (BSA) in Tris-buffered saline (TBS) with 0.1% w/v Tween-20. For detecting proteins the following primary antibodies in the given concentrations were used: anti-β-Actin (Cell Signaling Technology, 4970S, 13E5) 1:2000, anti-VHL (Cell Signaling Technology, #68547) 1:1000, anti-Hif-1α (BD Biosciences, 610959, clone 54) 1:1000, anti-hydroxy-HIF-1α (Hyp564) (Cell Signaling Techonology; #3434) 1:1000, anti-PHD2 (Bethyl Laboratories; A300-322A) 1:1000, anti-PHD3 (Bethyl Laboratories; A300-327A) 1:1000, anti-CRBN (Proteintech; 11435-1-AP) 1:1000.
(§6) Following incubation with a horseradish peroxidase-conjugated secondary antibody (Cell Signaling Technology), the signal was developed using enhanced chemiluminescence (ECL) Western Blotting Detection Kit (Amersham) on Amersham Hyperfilm ECL film (Amersham).
Band quantification was performed using ImageJ software and reported as relative amount as ratio of the each protein band relative to the lane's loading control. […]

VCB complex = VCB complex (Homo sapiens, UniProt P40337); test: Size exclusion chromatography of VCB complex formation; format: binding; conditions: SEC; for shift of VCB peak / ternary complex formation: VCB 50 μM, compound 30 μM
Chain of VCB complex (P40337 54-213 limits assumed): as the sequence (P40337 54-213) above
Chain of VCB complex (Q15370 1-104 partner limits assumed): as the sequence (Q15370 1-104 partner limits assumed) above
Chain of VCB complex (Q15369 17-112 partner limits assumed): as the sequence (Q15369 17-112 partner limits assumed) above
Method: SEC experiments were carried out in a AKTA pure system (GE Healthcare) at room temperature. The oligomeric state of the VCB complex in solution was analyzed by gel filtration in a buffer containing 20 mM Bis-Tris (pH 7), 150 mM NaCl and 1 mM 1,4-dithiothreitol (DTT) using a Superdex 200 Increase 10/300 GL column (GE Healthcare) calibrated with globular proteins of known molecular weight (GE Healthcare, 28-4038-41/42). […] Sample volume for each injection was 200 μL, and the flow rate was 0.5 mL/min. Peak elution was monitored using ultraviolet absorbance at 280 nm.

pVHL30 (VCB complex) = pVHL30 (VCB complex) (Homo sapiens, UniProt P40337); test: ITC titration against VCB, long VHL isoform; format: binding
Chain of pVHL30 (VCB complex) (P40337 whole entry, canonical isoform): as the sequence (P40337 whole entry, canonical isoform) above
Chain of pVHL30 (VCB complex) (Q15370 1-104 partner limits assumed): as the sequence (Q15370 1-104 partner limits assumed) above
Chain of pVHL30 (VCB complex) (Q15369 17-112 partner limits assumed): as the sequence (Q15369 17-112 partner limits assumed) above
Method: as §1

[3] = system: HIF-1α / hydroxylated HIF-1α (Hdy-HIF-1α); test: Western blot of HIF-1α and Hdy-HIF-1α levels in HeLa cells; format: cell-based, Human
Method: as §2, §3, §4, §5, §6
Band quantification was performed using ImageJ software and reported as relative amount as ratio of the each protein band relative to the lane's loading control. The values obtained were then normalized to 0.1% DMSO vehicle control.

Row | SMILES | Kd [1] [nM] | ΔG [1] [kcal/mol] | ΔH [1] [kcal/mol] | −TΔS [1] [kcal/mol] | n (stoichiometry) [1] | α (cooperativity/avidity) [1] | other results
1 | Cc1ncsc1-c1ccc(CNC(=O)[C@@H]2C[C@H](O)CN2C(=O)[C@@H](NC(=O)COCCOCCOCCOCCOCCOCC(=O)N[C@H](C(=O)N2C[C@@H](O)C[C@H]2C(=O)NCc2ccc(-c3scnc3C)cc2)C(C)(C)C)C(C)(C)C)cc1 [CMP98, N^1,N^20-bis((S)-1-((2S,4S)-4-hydroxy-2-((4-(4-methylthiazol-5-yl)benzyl)carbamoyl)pyrrolidin-1-yl)-3,3-dimethyl-1-oxobutan-2-yl)-3,6,9,12,15,18-hexaoxaicosanediamide] | – | – | – | – | – | – | binding to VCB detected by ITC [1]: binding was not detected; depletion/degradation of VHL (pVHL30) [2]: unable to induce degradation of VHL; shift of VCB peak / ternary complex formation (VCB complex): no shift
2 | Cc1ncsc1-c1ccc(CNC(=O)[C@H]2C[C@@H](O)CN2C(=O)[C@H](NC(=O)COCCOCCOCCOCCOCC(=O)N[C@H](C(=O)N2C[C@H](O)C[C@H]2C(=O)NCc2ccc(-c3scnc3C)cc2)C(C)(C)C)C(C)(C)C)cc1 [CMP99, N^1—((R)-1-((2R,4R)-4-hydroxy-2-((4-(4-methylthiazol-5-yl)benzyl)carbamoyl)pyrrolidin-1-yl)-3,3-dimethyl-1-oxobutan-2-yl)-N^17—((S)-1-((2S,4R)-4-hydroxy-2-((4-(4-methylthiazol-5-yl)benzyl)carbamoyl)pyrrolidin-1-yl)-3,3-dimethyl-1-oxobutan-2-yl)-3,6,9,12,15-pentaoxaheptadecanediamide] | 146 ± 2 | -9.33 ± 0.06 | -6.23 ± 0.05 | -3.1 ± 0.7 | 0.964 ± 0.005 | – | Kd (pVHL30 (VCB complex)): 106 ± 10 nM; n (stoichiometry) (pVHL30 (VCB complex)): 1.050 ± 0.004; ΔG (pVHL30 (VCB complex)): -9.51 ± 0.05 kcal/mol; ΔH (pVHL30 (VCB complex)): -5.19 ± 0.03 kcal/mol; −TΔS (pVHL30 (VCB complex)): -4.3 ± 0.1 kcal/mol; depletion/degradation of VHL (pVHL30) [2]: unable to induce degradation of VHL; elution volume of small peak (VCB complex): 13.5 mL; shift of VCB peak / ternary complex formation (VCB complex): no shift
3 | CC(=O)N[C@H](C(=O)N1C[C@H](O)C[C@H]1C(=O)NCc1ccc(-c2scnc2C)cc1OCCOCCOCCOCCOCCOc1cc(-c2scnc2C)ccc1CNC(=O)[C@@H]1C[C@@H](O)CN1C(=O)[C@@H](NC(C)=O)C(C)(C)C)C(C)(C)C [CMP106, (2S,2′S,4R,4′R)—N,N′-((((3,6,9,12-tetraoxatetradecane-1,14-diyl)bis(oxy))bis(4-(4-methylthiazol-5-yl)-2,1-phenylene))bis(methylene))bis(1-((S)-2-acetamido-3,3-dimethylbutanoyl)-4-hydroxypyrrolidine-2-carboxamide)] | 111 ± 8 | -9.5 | -12.6 ± 0.1 | 3.1 | 0.535 ± 0.004 | 1.7 | –
4 | Cc1ncsc1-c1ccc(CNC(=O)[C@@H]2C[C@@H](O)CN2C(=O)[C@@H](NC(=O)C2(C#N)CC2)C(C)(C)C)c(OCCOCCOCCOCCOCCOc2cc(-c3scnc3C)ccc2CNC(=O)[C@@H]2C[C@@H](O)CN2C(=O)[C@@H](NC(=O)C2(C#N)CC2)C(C)(C)C)c1 [CMP108, (2S,2′S,4R,4′R)—N,N′-((((3,6,9,12-tetraoxatetradecane-1,14-diyl)bis(oxy))bis(4-(4-methylthiazol-5-yl)-2,1-phenylene))bis(methylene))bis(1-((S)-2-(1-cyanocyclopropane-1-carboxamido)-3,3-dimethylbutanoyl)-4-hydroxypyrrolidine-2-carboxamide)] | – | – | – | – | – | – | binding to VCB detected by ITC [1]: data could not be fitted to a binding curve
5 | CC(=O)N[C@H](C(=O)N1C[C@H](O)C[C@H]1C(=O)NCc1ccc(-c2scnc2C)cc1OCCOCCOCCOCCOCCOCC(=O)N[C@H](C(=O)N1C[C@H](O)C[C@H]1C(=O)NCc1ccc(-c2scnc2C)cc1)C(C)(C)C)C(C)(C)C [CMP112, (2S,4R)-1-((S)-2-acetamido-3,3-dimethylbutanoyl)-4-hydroxy-N-(2-(((S)-19-((2S,4R)-4-hydroxy-2-((4-(4-methylthiazol-5-yl)benzyl)carbamoyl)pyrrolidine-1-carbonyl)-20,20-dimethyl-17-oxo-3,6,9,12,15-pentaoxa-18-azahenicosyl)oxy)-4-(4-methylthiazol-5-yl)benzyl)pyrrolidine-2-carboxamide] | 235 ± 22 | -9.1 | -14.8 ± 0.2 | 5.8 | 0.498 ± 0.006 | 0.8 | –
6 | Cc1ncsc1-c1ccc(CNC(=O)[C@@H]2C[C@@H](O)CN2C(=O)[C@@H](NC(=O)COCCOCCOCCOCCOCCOc2cc(-c3scnc3C)ccc2CNC(=O)[C@@H]2C[C@@H](O)CN2C(=O)[C@@H](NC(=O)C2(C#N)CC2)C(C)(C)C)C(C)(C)C)cc1 [CMP113, (2S,4R)-1-((S)-2-(tert-butyl)-20-(2-(((2S,4R)-1-((S)-2-(1-cyanocyclopropane-1-carboxamido)-3,3-dimethylbutanoyl)-4-hydroxypyrrolidine-2-carboxamido)methyl)-5-(4-methylthiazol-5-yl)phenoxy)-4-oxo-6,9,12,15,18-pentaoxa-3-azaicosanoyl)-4-hydroxy-N-(4-(4-methylthiazol-5-yl)benzyl)pyrrolidine-2-carboxamide] | 117 ± 25 | -9.5 | -6.4 ± 0.2 | -3.1 | 0.934 ± 0.005 | 1.7 | –
7 | CC(=O)N[C@H](C(=O)N1C[C@H](O)C[C@H]1C(=O)NCc1ccc(-c2scnc2C)cc1)C(C)(C)C [VH032, reference compound] | – | – | – | – | – | – | protein levels of Hdy-HIF-1α ([3]; HeLa, 1 μM, 10 h): completely ineffective; concentration at which active in cells ([3]; cells): ~100 µM
